Assay results published in PubChem BioAssay (NCI).
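Where inhibition never reached the appropriate level, the endpoint shown equals the highest concentration tested. Otherwise, values were interpolated linearly from a five-concentration, 48-hour dose response in 96-well plates. GI50: concentration for 50% inhibition of growth. At the TGI there is no net growth.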

Tests used:
Assay in all cases: NCI anticancer screen, dose series, 48 h
NCI-H23 lung = tested on: NCI-H23 lung
NCI-H460 lung = tested on: NCI-H460 lung
NCI-H522 lung = tested on: NCI-H522 lung
NCI/ADR-RES ovarian = tested on: NCI/ADR-RES ovarian
OVCAR-3 ovarian = tested on: OVCAR-3 ovarian
OVCAR-4 ovarian = tested on: OVCAR-4 ovarian
OVCAR-8 ovarian = tested on: OVCAR-8 ovarian
PC-3 prostate = tested on: PC-3 prostate
RPMI-8226 leukemia = tested on: RPMI-8226 leukemia
RXF 393 renal = tested on: RXF 393 renal
SF-268 CNS = tested on: SF-268 CNS
SF-295 CNS = tested on: SF-295 CNS
SF-539 CNS = tested on: SF-539 CNS
SK-MEL-2 melanoma = tested on: SK-MEL-2 melanoma
SK-MEL-28 melanoma = tested on: SK-MEL-28 melanoma
SK-MEL-5 melanoma = tested on: SK-MEL-5 melanoma
SK-OV-3 ovarian = tested on: SK-OV-3 ovarian
SN12C renal = tested on: SN12C renal
SNB-19 CNS = tested on: SNB-19 CNS
SNB-75 CNS = tested on: SNB-75 CNS
SR leukemia = tested on: SR leukemia
SW-620 colon = tested on: SW-620 colon
T-47D breast = tested on: T-47D breast
TK-10 renal = tested on: TK-10 renal
U251 CNS = tested on: U251 CNS
UACC-257 melanoma = tested on: UACC-257 melanoma
UACC-62 melanoma = tested on: UACC-62 melanoma
UO-31 renal = tested on: UO-31 renal

## COc1ccc(-n2nc(C(=O)c3ccccc3)c3nn4c(=O)cc(-c5ccccc5)nc4nc32)cc1
NCI-H23 lung
  GI50: 67.2 µM
  TGI: > 100 µM
NCI-H460 lung
  GI50: 32.4 µM
  TGI: > 100 µM
NCI-H522 lung
  GI50: 23.1 µM
  TGI: 81.2 µM
NCI/ADR-RES ovarian
  GI50: 34.5 µM
  TGI: > 100 µM
OVCAR-3 ovarian
  GI50: 30.7 µM
  TGI: > 100 µM
OVCAR-4 ovarian
  GI50: 30.5 µM
  TGI: > 100 µM
OVCAR-8 ovarian
  GI50: 40.1 µM
  TGI: > 100 µM
PC-3 prostate
  GI50: 50.5 µM
  TGI: > 100 µM
RPMI-8226 leukemia
  GI50: 40 µM
  TGI: > 100 µM
RXF 393 renal
  GI50: > 100 µM
  TGI: > 100 µM
SF-268 CNS
  GI50: 39.1 µM
  TGI: > 100 µM
SF-295 CNS
  GI50: 28.9 µM
  TGI: 85.2 µM
SF-539 CNS
  GI50: 41.8 µM
  TGI: > 100 µM
SK-MEL-2 melanoma
  GI50: 45.8 µM
  TGI: > 100 µM
SK-MEL-28 melanoma
  GI50: 38.3 µM
  TGI: > 100 µM
SK-MEL-5 melanoma
  GI50: 41.7 µM
  TGI: > 100 µM
SK-OV-3 ovarian
  GI50: 74.2 µM
  TGI: > 100 µM
SN12C renal
  GI50: 41.7 µM
  TGI: > 100 µM
SNB-19 CNS
  GI50: 69.1 µM
  TGI: > 100 µM
SNB-75 CNS
  GI50: 37.9 µM
  TGI: > 100 µM
SR leukemia
  GI50: 24.9 µM
  TGI: > 100 µM
SW-620 colon
  GI50: 44.3 µM
  TGI: > 100 µM
T-47D breast
  GI50: 32.4 µM
  TGI: > 100 µM
TK-10 renal
  GI50: 40.3 µM
  TGI: > 100 µM
U251 CNS
  GI50: 39.2 µM
  TGI: > 100 µM
UACC-257 melanoma
  GI50: 42.6 µM
  TGI: > 100 µM
UACC-62 melanoma
  GI50: 28.4 µM
  TGI: 97.6 µM
UO-31 renal
  GI50: 28.6 µM
  TGI: > 100 µM
